Numbered stars: 1 amine (or outer) side, 2 acyl side, 3 side chain; on linkers, the order of the positions; unused ones are H or OH. Bridge positions count the residues as written; N and C are the ends. Square brackets hold non-standard residues; d marks the D form. Peptide text beside a SMILES is read from it. * marks the point of attachment. TtdsdLys(DOTA)NH2 = NC(=O)[C@@H](CCCCNC(=O)CN1CCN(CC(=O)O)CCN(CC(=O)O)CCN(CC(=O)O)CC1)NC(=O)CCC(=O)NCCCOCCOCCOCCCN*; X7 = O=C(O)CN1CCN(CC(=O)O)CCN(CC(=O)NC2CCN(CC(=O)*)CC2)CCN(CC(=O)O)CC1; DOTA = O=C(O)CN1CCN(CC(=O)O)CCN(CC(=O)*)CCN(CC(=O)O)CC1; Ala(quinolin-3-yl) = N[C@@H](Cc1cnc2ccccc2c1)C(=O)O; Phe(4-Cl) = N[C@@H](Cc1ccc(Cl)cc1)C(=O)O; Propanoyl(3-SO2NH2) = NS(=O)(=O)CCC(=O)*; Arg(Me) = CNC(=N)NCCC[C@H](N)C(=O)O; X1 = O=C(CC1CCN([*:1])CC1)[*:2]; Cit = NC(=O)NCCC[C@H](N)C(=O)O; Lys(Me) = CNCCCC[C@H](N)C(=O)O; Tle = CC(C)(C)[C@H](N)C(=O)O; Propanoyl(3-OH) = O=C(CCO)*; Nle = CCCC[C@H](N)C(=O)O; Aib = CC(C)(N)C(=O)O; CH2 = C([*:1])[*:2]
Key:
[1] = biological target: T1, Fc-fusion protein of human PSMA (hPSMA-Fc) (Homo sapiens, UniProt Q04609); experiment: Surface plasmon resonance assay (Biacore T200, single cycle kinetic); type: binding; conditions: PSMA SPR assay, hPSMA-Fc, 25° C.; pKD category; read-out: pKD CAT (converted)
T1 construct: purchased Acro Biosystems PSA-H5264
T1 sequence (Q04609 44-750 limits assumed): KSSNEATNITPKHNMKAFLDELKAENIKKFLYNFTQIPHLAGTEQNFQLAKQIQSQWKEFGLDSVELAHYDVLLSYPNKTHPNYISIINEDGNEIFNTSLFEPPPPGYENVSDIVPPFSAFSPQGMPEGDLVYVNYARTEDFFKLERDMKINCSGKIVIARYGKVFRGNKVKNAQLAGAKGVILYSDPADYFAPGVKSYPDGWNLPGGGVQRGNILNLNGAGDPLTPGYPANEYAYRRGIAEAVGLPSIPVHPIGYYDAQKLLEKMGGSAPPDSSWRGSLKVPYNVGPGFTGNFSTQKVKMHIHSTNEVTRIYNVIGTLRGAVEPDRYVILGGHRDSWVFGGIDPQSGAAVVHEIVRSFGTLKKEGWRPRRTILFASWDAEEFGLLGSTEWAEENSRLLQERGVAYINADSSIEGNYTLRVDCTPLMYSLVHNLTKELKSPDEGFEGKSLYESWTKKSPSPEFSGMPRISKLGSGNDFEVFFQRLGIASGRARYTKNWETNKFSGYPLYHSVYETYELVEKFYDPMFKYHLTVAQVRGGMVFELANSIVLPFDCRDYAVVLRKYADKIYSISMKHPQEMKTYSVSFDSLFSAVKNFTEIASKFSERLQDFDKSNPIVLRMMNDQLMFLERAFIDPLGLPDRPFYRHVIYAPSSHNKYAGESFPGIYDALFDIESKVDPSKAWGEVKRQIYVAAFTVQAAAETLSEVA
Outline: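 KD, expressed as pKD, came from 1:1 Langmuir fits of reference- and buffer-blank-subtracted SPR data. The runs were single-cycle kinetics at 25° C in HBST/0.1% DMSO over human PSMA-Fc, captured to ~1000 RU on a peptide-coated CM5 surface and regenerated with 10 mM glycine pH 1.5.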

[2] = biological target: T2, PSMA-expressing C4-2 cells (Homo sapiens, UniProt Q04609); experiment: FACS binding assay (competition with 50 nM PSM-0183); conditions: FACS binding, PSMA-expressing C4-2 cells; pIC50 category; read-out: pIC50 [C4-2] CAT (converted)
T2 construct: PSMA-expressing C4-2 cells (ATCC, Cat. No. CRL-3314) were cultured in RPMI-1640; host or cells: C4-2 cells
T2 sequence (Q04609 whole entry): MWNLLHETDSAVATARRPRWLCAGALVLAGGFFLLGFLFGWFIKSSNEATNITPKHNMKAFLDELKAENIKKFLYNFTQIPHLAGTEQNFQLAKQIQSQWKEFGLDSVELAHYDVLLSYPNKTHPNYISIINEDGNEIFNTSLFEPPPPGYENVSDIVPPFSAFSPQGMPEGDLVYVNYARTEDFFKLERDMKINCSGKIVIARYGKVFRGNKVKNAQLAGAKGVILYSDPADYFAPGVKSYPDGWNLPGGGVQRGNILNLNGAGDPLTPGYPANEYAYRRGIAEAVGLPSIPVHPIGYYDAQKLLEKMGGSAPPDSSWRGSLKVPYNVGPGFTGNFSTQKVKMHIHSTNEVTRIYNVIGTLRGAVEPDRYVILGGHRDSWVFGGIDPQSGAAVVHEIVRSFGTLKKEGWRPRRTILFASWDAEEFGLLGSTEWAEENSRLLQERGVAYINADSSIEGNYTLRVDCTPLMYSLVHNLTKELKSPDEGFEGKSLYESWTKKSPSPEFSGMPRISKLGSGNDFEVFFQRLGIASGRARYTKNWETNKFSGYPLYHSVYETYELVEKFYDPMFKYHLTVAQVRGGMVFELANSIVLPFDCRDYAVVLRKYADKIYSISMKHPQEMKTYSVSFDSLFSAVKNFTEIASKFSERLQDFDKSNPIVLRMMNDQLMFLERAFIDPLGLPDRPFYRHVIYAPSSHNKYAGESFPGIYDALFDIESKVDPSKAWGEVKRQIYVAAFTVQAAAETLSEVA
Outline: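 Competition format: fluorescent tracer PSM-0183 (50 nM) displaced from PSMA on C4-2 cells by a test compound titration over 1 h at 4 °C. Bound tracer was quantified as flow-cytometric AF488 median fluorescence after washing. Four-parameter logistic fits of MFI data gave IC50 and pIC50.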

| Compound | Kd [1] [nM] | IC50 [2] [nM] |
| --- | --- | --- |
| C[C@@H](O)[C@H](NC(=O)[C@@H](NC(=O)[C@@H]1CSSC[C@H](NC(=O)[C@H](Cc2ccc(Cl)cc2)NC(=O)C(C)(C)NC(=O)CCO)C(=O)N[C@@H](CCCCN)C(=O)N[C@@H](CCCNC(=N)N)C(=O)N[C@@H](CCCCNC(=O)CN2CCC(NC(=O)CN3CCN(CC(=O)O)CCN(CC(=O)O)CCN(CC(=O)O)CC3)CC2)C(=O)N[C@@H](CC(N)=O)C(=O)N1)C(C)(C)C)C(N)=O [PSM-0324, HPA-Aib-Pcf-[Cys-Lys-Arg-Lys(DOTA-APAc)-Asn-Cys]-Tle-Thr-NH2] ({Propanoyl(3-OH)}-[Aib][Phe(4-Cl)]CKRK(X7)NC[Tle]T-NH2; disulfide 3-8) | < 12.6 | < 200 |
| CC(=O)N[C@H](C(=O)NC(C)(C)C(=O)N[C@@H](Cc1ccccc1)C(=O)N[C@H]1CSSC[C@@H](C(=O)N[C@H](C(=O)N[C@H](C(N)=O)[C@@H](C)O)C(C)(C)C)NC(=O)[C@H](CC(N)=O)NC(=O)[C@H](CCCCNC(=O)CN2CCN(CC(=O)O)CCN(CC(=O)O)CCN(CC(=O)O)CC2)NC(=O)[C@H](CCCNC(=N)N)NC(=O)[C@H](CCCCN)NC1=O)[C@@H](C)O [PSM-0326, Ac-Thr-Aib-Phe-[Cys-Lys-Arg-Lys(DOTA)-Asn-Cys]-Tle-Thr-NH2] (Ac-T[Aib]FCKRK(DOTA)NC[Tle]T-NH2; disulfide 4-9) | 12.6 to 126 | < 200 |
| CC(=O)N[C@H](C(=O)NC(C)(C)C(=O)N[C@@H](Cc1ccccc1)C(=O)N[C@@H]1CSSC[C@H](C(=O)N[C@H](C(=O)N[C@H](C(N)=O)[C@@H](C)O)C(C)(C)C)NC(=O)[C@H](CC(N)=O)NC(=O)C(C)(C)NC(=O)[C@H](CCCNC(=N)N)NC(=O)[C@H](CCCCN)NC1=O)[C@@H](C)O [PSM-0327, Ac-Thr-Aib-Phe-[cys-Lys-Arg-Aib-Asn-cys]-Tle-Thr-NH2] (Ac-T[Aib]F[dC]KR[Aib]N[dC][Tle]T-NH2; disulfide 4-9) | > 501 | > 3160 |
| C[C@@H](O)[C@H](NC(=O)[C@@H](NC(=O)[C@@H]1CSSC[C@H](NC(=O)[C@H](Cc2ccc(Cl)cc2)NC(=O)C(C)(C)NC(=O)CCS(N)(=O)=O)C(=O)N[C@@H](CCCCN)C(=O)N[C@@H](CCCNC(=N)N)C(=O)NC(C)(C)C(=O)N[C@@H](CC(N)=O)C(=O)N1)C(C)(C)C)C(=O)N[C@H](CCCCNC(=O)CN1CCN(CC(=O)O)CCN(CC(=O)O)CCN(CC(=O)O)CC1)C(N)=O [PSM-0328, SaPr-Aib-Pcf-[Cys-Lys-Arg-Aib-Asn-Cys]-Tle-Thr-lys(DOTA)-NH2] ({Propanoyl(3-SO2NH2)}-[Aib][Phe(4-Cl)]CKR[Aib]NC[Tle]T[dK](DOTA)-NH2; disulfide 3-8) | < 12.6 | < 200 |
| CC(=O)N[C@H](C(=O)NC(C)(C)C(=O)N[C@@H](Cc1ccc(Cl)cc1)C(=O)N[C@H]1CSSC[C@@H](C(=O)N[C@H](C(=O)N[C@H](C(=O)N2CCC(CC(=O)N[C@H](CCCCNC(=O)CN3CCN(CC(=O)O)CCN(CC(=O)O)CCN(CC(=O)O)CC3)C(N)=O)CC2)[C@@H](C)O)C(C)(C)C)NC(=O)[C@H](CC(N)=O)NC(=O)C(C)(C)NC(=O)[C@H](CCCNC(N)=O)NC(=O)[C@H](CCCCN)NC1=O)[C@@H](C)O [PSM-0329, Ac-Thr-Aib-Pcf-[Cys-Lys-Cit-Aib-Asn-Cys]-Tle-Thr-Cmp-lys(DOTA)-NH2] (Ac-T[Aib][Phe(4-Cl)]CK[Cit][Aib]NC[Tle]T[X1][dK](DOTA)-NH2; disulfide 4-9) | 12.6 to 126 | < 200 |
| CC(=O)N[C@H](C(=O)N[C@@H](C)C(=O)N[C@@H](Cc1ccccc1)C(=O)N[C@H]1CSSC[C@@H](C(=O)N[C@@H](CC(C)C)C(=O)N[C@H](C(=O)N[C@@H](CC(=O)O)C(=O)NCCCOCCOCCOCCCNC(=O)CCC(=O)N[C@H](CCCCNC(=O)CN2CCN(CC(=O)O)CCN(CC(=O)O)CCN(CC(=O)O)CC2)C(N)=O)[C@@H](C)O)NC(=O)[C@H](CC(N)=O)NC(=O)[C@H](C)NC(=O)[C@H](CCCNC(=N)N)NC(=O)[C@H](CCCCN)NC1=O)[C@@H](C)O [PSM-0330, Ac-Thr-Ala-Phe-[Cys-Lys-Arg-Ala-Asn-Cys]-Leu-Thr-Asp-Ttds-lys(DOTA)-NH2] (Ac-TAFCKRANCLTD-{TtdsdLys(DOTA)NH2}; disulfide 4-9) | 12.6 to 126 | 200 to 1260 |
| CC(=O)N[C@H](C(=O)NC(C)(C)C(=O)N[C@@H](Cc1ccccc1)C(=O)N[C@H]1CSSC[C@H](C(=O)N[C@H](C(=O)N[C@H](C(N)=O)[C@@H](C)O)C(C)(C)C)NC(=O)[C@H](CC(N)=O)NC(=O)C(C)(C)NC(=O)[C@H](CCCNC(=N)N)NC(=O)[C@H](CCCCN)NC1=O)[C@@H](C)O [PSM-0331, Ac-Thr-Aib-Phe-[Cys-Lys-Arg-Aib-Asn-cys]-Tle-Thr-NH2] (Ac-T[Aib]FCKR[Aib]N[dC][Tle]T-NH2; disulfide 4-9) | > 501 | 200 to 1260 |
| C[C@@H](O)[C@H](NC(=O)CC1CCN(C(=O)CN2CCN(CC(=O)O)CCN(CC(=O)O)CCN(CC(=O)O)CC2)CC1)C(=O)NC(C)(C)C(=O)N[C@@H](Cc1ccc(Cl)cc1)C(=O)N[C@H]1CSCSC[C@@H](C(=O)N[C@H](C(N)=O)C(C)(C)C)NC(=O)[C@H](CC(N)=O)NC(=O)C(C)(C)NC(=O)[C@H](CCCNC(=N)N)NC(=O)[C@H](CCCCN)NC1=O [PSM-0332, DOTA-Cmp-Thr-Aib-Pcf-[Smc-Lys-Arg-Aib-Asn-Cys]-Tle-NH2] ({DOTA}-[X1]T[Aib][Phe(4-Cl)]CKR[Aib]NC[Tle]-NH2; linker 5-10 via CH2) | < 12.6 | < 200 |
| C[C@@H](O)[C@H](NC(=O)[C@@H](NC(=O)[C@@H]1CSSC[C@H](NC(=O)[C@H](Cc2cnc3ccccc3c2)NC(=O)C(C)(C)NC(=O)[C@@H](NC(=O)CC2CCN(C(=O)CN3CCN(CC(=O)O)CCN(CC(=O)O)CCN(CC(=O)O)CC3)CC2)[C@@H](C)O)C(=O)N[C@@H](CCCCN)C(=O)N[C@@H](CCCNC(N)=O)C(=O)NC(C)(C)C(=O)N[C@@H](CC(N)=O)C(=O)N1)C(C)(C)C)C(N)=O [PSM-0333, DOTA-Cmp-Thr-Aib-2Qi-[Cys-Lys-Cit-Aib-Asn-Cys]-Tle-Thr-NH2] ({DOTA}-[X1]T[Aib][Ala(quinolin-3-yl)]CK[Cit][Aib]NC[Tle]T-NH2; disulfide 5-10) | > 501 | > 3160 |
| CC(=O)N[C@H](C(=O)NC(C)(C)C(=O)N[C@@H](Cc1ccccc1)C(=O)N[C@H]1CSSC[C@@H](C(=O)N[C@H](C(=O)N[C@H](C(=O)N[C@@H](CC(=O)O)C(N)=O)[C@@H](C)O)C(C)(C)C)NC(=O)[C@H](CC(N)=O)NC(=O)C(C)(C)NC(=O)[C@H](CCC(N)=O)NC(=O)[C@H](CCCCN)NC1=O)[C@@H](C)O [PSM-0334, Ac-Thr-Aib-Phe-[Cys-Lys-Gln-Aib-Asn-Cys]-Tle-Thr-Asp-NH2] (Ac-T[Aib]FCKQ[Aib]NC[Tle]TD-NH2; disulfide 4-9) | 12.6 to 126 | < 200 |
| CCCC[C@H](NC(=O)[C@@H]1CSSC[C@H](NC(=O)[C@H](Cc2ccccc2)NC(=O)[C@H](C)NC(=O)[C@@H](NC(C)=O)[C@@H](C)O)C(=O)N[C@@H](CCCCN)C(=O)N[C@@H](CCCNC(=N)N)C(=O)N[C@@H](C)C(=O)N[C@@H](C)C(=O)N1)C(=O)N[C@H](C(=O)N[C@@H](CC(=O)O)C(N)=O)[C@@H](C)O [PSM-0335, Ac-Thr-Ala-Phe-[Cys-Lys-Arg-Ala-Ala-Cys]-Nle-Thr-Asp-NH2] (Ac-TAFCKRAAC[Nle]TD-NH2; disulfide 4-9) | 12.6 to 126 | 1260 to 3160 |
| CC(=O)N[C@H](C(=O)NC(C)(C)C(=O)N[C@@H](Cc1ccc(Cl)cc1)C(=O)N[C@H]1CSSC[C@@H](C(=O)N[C@H](C(=O)N[C@H](C(N)=O)[C@@H](C)O)C(C)(C)C)NC(=O)[C@H](CC(N)=O)NC(=O)C(C)(C)NC(=O)[C@H](CCCNC(=N)N)NC(=O)[C@H](CCCCN)NC1=O)[C@@H](C)O [PSM-0336, Ac-Thr-Aib-Pcf-[Cys-Lys-Arg-Aib-Asn-Cys]-Tle-Thr-NH2] (Ac-T[Aib][Phe(4-Cl)]CKR[Aib]NC[Tle]T-NH2; disulfide 4-9) | < 12.6 | < 200 |
| CNCCCC[C@@H]1NC(=O)[C@@H](NC(=O)[C@H](Cc2cnc3ccccc3c2)NC(=O)C(C)(C)NC(=O)[C@@H](NC(=O)CC2CCN(C(=O)CN3CCN(CC(=O)O)CCN(CC(=O)O)CCN(CC(=O)O)CC3)CC2)[C@@H](C)O)CSSC[C@@H](C(=O)N[C@H](C(=O)N[C@H](C(N)=O)[C@@H](C)O)C(C)(C)C)NC(=O)[C@H](CC(N)=O)NC(=O)C(C)(C)NC(=O)[C@H](CCCNC(=N)NC)NC1=O [PSM-0337, DOTA-Cmp-Thr-Aib-2Qi-[Cys-Lys(Me)-Arg(Me)-Aib-Asn-Cys]-Tle-Thr-NH2] ({DOTA}-[X1]T[Aib][Ala(quinolin-3-yl)]C[Lys(Me)][Arg(Me)][Aib]NC[Tle]T-NH2; disulfide 5-10) | > 501 | 1260 to 3160 |
| CCCC[C@@H]1NC(=O)[C@H](CCCCN)NC(=O)[C@@H](NC(=O)[C@H](Cc2ccc(Cl)cc2)NC(=O)C(C)(C)NC(=O)[C@@H](NC(C)=O)[C@@H](C)O)CSSC[C@@H](C(=O)N[C@H](C(=O)N[C@H](C(N)=O)[C@@H](C)O)C(C)(C)C)NC(=O)[C@H](CC(N)=O)NC(=O)C(C)(C)NC1=O [PSM-0338, Ac-Thr-Aib-Pcf-[Cys-Lys-Nle-Aib-Asn-Cys]-Tle-Thr-NH2] (Ac-T[Aib][Phe(4-Cl)]CK[Nle][Aib]NC[Tle]T-NH2; disulfide 4-9) | < 12.6 | < 200 |
